Values joined by “and” are separate entries in the source; they are usually repeats but may differ in a detail not shown here. Identical values can stand only once.
Experiments:
340 wild-type kinases = molecular target: T1, 340 wild-type kinases (Homo sapiens, UniProt Q8TDX7); experiment: selectivity profiling in a panel of 340 wild-type kinases (Reaction Biology Europe); assay type: binding; settings: NEK7; 1 µM; read-out: residual activity
T1 construct: purchased Reaction Biology Europe
Excerpt: Potential interactions between 2015 and 340 wild-type kinases were checked by means of a competition binding assay performed by Reaction Biology Europe (Supplementary Table 15).

[1] = cell viability in healthy human colon organoids SCC311; assay type: cell-based; settings: female, human, ED Fig. 10f, replicates
Method: (§1) Primary tumor material was chopped, washed in ice-cold medium and transferred into basic medium (Supplementary Table 17), supplemented with 2.5 mg ml^−1 collagenase II (Thermo Fisher Scientific), 2.5 mg ml^−1 collagenase XI (Sigma-Aldrich), 1 mg ml^−1 Dispase II (Sigma-Aldrich), 100 µg ml^−1 DNase I and 10.5 µM Y-27632 dihydrochloride (Invitrogen). Tumor digestion was performed at 37 °C and stopped by adding medium containing 10% FBS. The mixture was centrifuged for 5 min at 300g. Red blood cells were removed with ACK lysing buffer (Thermo Fisher Scientific; 5 min at room temperature) and the pellet was resuspended in medium. Approximately 1,000 cells were resuspended and plated in 50 µl of Cultrex RGF BME, type 2 (R&D Systems). The ascites material was pelleted by centrifugation at 300g and washed three times with ice-cold PBS. Human CRC organoids were cultured in human CRC medium (Supplementary Table 17) at 37 °C and 7% CO2. Within the first week, the medium was supplemented with 10.5 µM Y-27632 dihydrochloride (Invitrogen). The human colon organoids (SCC311 and SCC321) were purchased from Sigma-Aldrich and cultured in human colon medium (Supplementary Table 17) at 37 °C and 7% CO2. They were derived from participants with the following sex and age: […].
(§2) For in vitro treatment studies, organoids were mechanically dissociated and digested using TrypLE supplemented with 100 µg ml^−1 DNaseI and 10.5 µM Y-27632 dihydrochloride (Invitrogen) at 37 °C. A total of 1,000–2,000 single cells were plated per well in white 96-well plates (Greiner) in culture medium containing 10% GFR Matrigel or Cultrex BME. The treatment with doxycycline (5 µg ml^−1), pharmacological inhibitors or corresponding volumes of DMSO was started 24 h after plating. Doxycycline was obtained from Sigma-Aldrich. […] Cell viability was measured by means of CellTiter-Glo 3D or CellTiter-Glo 2.0 reagent (Promega) according to the manufacturers’ instructions and the Infinite M Plex reader (Tecan, i-control version 3.9.1 software). Results were normalized to vehicle (DMSO) or to shNC. For cell-doubling assays, the cell number was quantified at the corresponding time points using Guava EasyCyte flow cytometer (Luminex, CytoSoft v5.2 software).

[2] = system: SCC311 human colon organoids; experiment: as above; assay type: cell-based; settings: for Cell viability (%): ED Fig. 10f, replicates
Method: as §1, §2

[3] = cell viability in healthy human colon organoids SCC321; assay type: cell-based; settings: male, human, replicates
Method: as §1, §2

[4] = system: SCC321 human colon organoids; experiment: as above; assay type: cell-based; settings: for Cell viability (%): ED Fig. 10g, replicates
Method: as §1, §2

KMP primary CRCs = experiment: survival of mice with KMP primary CRCs (cecum injection); assay type: in vivo, mouse
Method: Subcutaneous injection, splenic seeding or cecum injection of organoids was performed in 8–10-week-old C57BL/6 N/Crl, Rag2^−/− (B6.Cg-Rag2^tm1.1Cgn/J), or CB17 Scid beige (CB17.Cg-Prkdc^scidLyst^bg-J/Crl) mice, obtained from Charles River. The organoids were dissociated into single cells, washed with PBS and injected in a 1:1 mixture of PBS and Matrigel. For murine organoids, 1 × 10^5 cells were injected into the left and right flanks or the spleen capsule and 2 × 10^6 cells were injected into the cecum wall. For human organoids, 4 × 10^5 cells were injected into the flanks of CB17 Scid beige mice. For splenic seeding and cecum injection, mice were anaesthetized using ketamine (100 mg kg^−1, intraperitoneally) and xylazin (10 mg/kg, intraperitoneally) in NaCl and a small laparotomy below the thorax was performed.
No mice were excluded during treatment studies.

[5] = histological evaluation of small intestine, colon and liver of treated mice; assay type: in vivo, mouse
Method: Histopathological evaluation of colorectal tumors and healthy tissues was performed by experienced pathologists (S.S. for murine or human tumors and tissues; G.O. for human tumors). Hematoxylin and eosin (H&E) staining was performed on paraffin-embedded sections using 0.5% eosin and 0.5% hematoxylin.

immune cells = experiment: FACS quantification of immune cells in blood, spleen, liver and tumors of treated mice; assay type: in vivo, mouse; settings: for CD4+, % of CD3+ cells / CD8+, % of CD3+ cells / CD69+ % of CD4+ T cells / CD69+ % of CD8+ T cells / CD69+ % of T cells: single animals; for CD4+, % of CD3+ cells / CD8+, % of CD3+ cells: Fig. 6f; for CD69+ % of CD4+ T cells / CD69+ % of CD8+ T cells / CD69+ % of T cells: Fig. 6g; for B cells, % of living cells / CD4+ T cells, % of living cells / CD8+ T cells, % of living cells / Dendritic cells, % of living cells / Granulocytes, % of living cells / Monocytes, % of living cells / NK cells, % of living cells / T cells, % of living cells: spleen, 4 d of treatment
Method: To determine immune cells, cell suspensions of peripheral blood, spleen, liver or tumors were prepared. Cells were lysed with ammonium chloride buffer ([…], 0.1 mM EDTA and 0.150 mM KHCO3) to eliminate erythrocytes and were stained with antibodies from Biolegend and the live–dead fixable aqua dead cell stain kit (Thermo Fisher Scientific; dilution: 1:1,000). All used antibodies and dilutions are listed in the Nature Portfolio Reporting Summary. Cells were analyzed with the LSR Fortessa (BD). Samples were gated on single viable cells and the percentage of NK cells (NK1.1^+CD3^−), T cells (CD3^+NK1.1^−), CD4^+ T cells (CD3^+NK1.1^−CD4^+CD8a^−), CD8^+ T cells (CD3^+NK1.1^−CD8a^+CD4^−), B cells (CD3^−NK1.1^−CD19^+Ly6G^−), dendritic cells (CD3^−NK1.1^−CD19^−CD11c^+), monocytes (CD3^−NK1.1^−CD19^−CD11c^−Ly6Ghigh^+CD16/32low^+) and granulocytes (CD3^−NK1.1^−CD19^−CD11c^−Ly6G^+CD16/32high^+) was calculated.

T1 sequence (Q8TDX7 whole entry): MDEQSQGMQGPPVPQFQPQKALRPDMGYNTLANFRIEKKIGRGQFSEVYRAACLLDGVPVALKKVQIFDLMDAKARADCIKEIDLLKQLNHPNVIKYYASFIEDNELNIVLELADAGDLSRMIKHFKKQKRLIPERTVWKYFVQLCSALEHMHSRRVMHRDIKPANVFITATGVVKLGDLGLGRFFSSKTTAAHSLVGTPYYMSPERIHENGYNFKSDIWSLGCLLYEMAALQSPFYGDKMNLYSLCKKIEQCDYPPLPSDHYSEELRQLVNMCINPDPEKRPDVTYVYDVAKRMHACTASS

CNC(=O)c1ccc2c(c1)C(=O)c1ccc(Nc3ccc(F)c(NC(=O)C4CC4)c3)cc1CC2 [Compound 2015]
remaining activity at 1 µM (340 wild-type kinases): 110% | viability at 5 µM ([1]; healthy human colon organoids SCC311, 2015 0,5 µM): 96% | viability at 25 µM ([1]; healthy human colon organoids SCC311, 2015 0,25 µM): 113% | Cell viability (%) ([2]; 2015 0,5 µM, 5 µM): 94.54% and 77.32% | Cell viability (%) ([2]; 2015 0,25 µM, 25 µM): 97.45% and 99.37% | Cell viability (%) ([2]; 2015 1 µM): 74.60% and 77.39% and 95.83% | response of healthy human colon culture (in words) ([2]; SCC311, 4 d): only a very weak response | viability at 25 µM ([3]; healthy human colon organoids SCC321, 2015 0,25 µM, ED Fig. 10g): 105% | viability at 5 µM ([3]; healthy human colon organoids SCC321, 2015 0, ED Fig. 10g): 109% | viability at 1 µM ([3]; healthy human colon organoids SCC321, 2015 1 µM, ED Fig. 10g): 86.9% | Cell viability (%) ([4]; 2015 0,5 µM, 5 µM): 115.51% and 112.50% | Cell viability (%) ([4]; 2015 0,25 µM, 25 µM): 100.29% and 98.19% | Cell viability (%) ([4]; 2015 1 µM): 83.04% and 75.31% | response of healthy human colon culture (in words) ([4]; SCC321, 4 d): only a very weak response | Survival (d of treatment) (KMP primary CRCs; individual mice, KMP primary CRC, treatment started 9 days after transplantation): 24 days and 15 days and 11 days and 25 days and 21 days and 13 days and 18 days | Kaplan–Meier event entry in 2015 (1 or 0) (KMP primary CRCs; individual mice, KMP primary CRC, meaning of 1/0 not given): 1 and 0 | survival of mice with KMP primary CRC (in words) (KMP primary CRCs; start 9 days after organoid injection): significantly prolonged survival | intestinal epithelium (in words) ([5]; 4 days or 10 weeks daily treatment): did not influence the regeneration of intestinal epithelium | liver damage (in words) ([5]; short-term and long-term treatment): no signs for liver damage | CD4^+ T cells in CRC liver metastases (in words) (immune cells; 4 days of treatment): increases the number of CD4^+ T cells | CD4+, % of CD3+ cells (immune cells; Blood): 59.0% and 54.5% and 53.0% and 56.9% | CD8+, % of CD3+ cells (immune cells; Blood): 35.8% and 35.1% (2×) and 39.0% | CD69+ % of CD4+ T cells (immune cells; Liver): 11.90% and 8.89% and 6.59% and 10.70% | CD69+ % of CD8+ T cells (immune cells; Liver): 5.92% and 8.71% and 6.52% and 6.93% | CD69+ % of T cells (immune cells; Liver): 9.86% and 8.16% and 6.40% and 10.30% | CD4+, % of CD3+ cells (immune cells; Spleen): 67.8% and 63.7% and 64.1% and 65.2% | CD8+, % of CD3+ cells (immune cells; Spleen): 25.5% and 28.8% and 28.3% and 27.0% | CD4+, % of CD3+ cells (immune cells; Tumor): 74.4% and 79.8% and 62.9% | CD8+, % of CD3+ cells (immune cells; Tumor): 13.6% and 8.5% and 20.0% | CD69+ % of CD4+ T cells (immune cells; Tumor): 56.80% and 69.90% and 47.60% | CD69+ % of CD8+ T cells (immune cells; Tumor): 44.60% and 54.20% and 52.00% | CD69+ % of T cells (immune cells; Tumor): 49.80% and 60.30% and 42.10% | B cells, % of living cells (immune cells; healthy mice): 45.80% and 42.90% and 40.80% and 40.90% | CD4+ T cells, % of living cells (immune cells; healthy mice): 22.70% and 22.50% and 25.00% and 24.30% | CD8+ T cells, % of living cells (immune cells; healthy mice): 10.00% and 8.13% and 10.80% | Dendritic cells, % of living cells (immune cells; healthy mice): 2.32% and 3.09% and 2.65% and 2.11% | Granulocytes, % of living cells (immune cells; healthy mice): 4.12% and 5.18% and 4.35% and 4.21% | Monocytes, % of living cells (immune cells; healthy mice): 2.59% and 2.56% and 2.30% and 2.36% | NK cells, % of living cells (immune cells; healthy mice): 2.30% and 4.22% and 4.00% and 4.77% | T cells, % of living cells (immune cells; healthy mice): 35.20% and 32.90% and 37.90% and 36.50% | B cells, % of living cells (immune cells; tumor mice (KAP metastases)): 40.60% and 49.20% and 45.00% and 44.10% | CD4+ T cells, % of living cells (immune cells; tumor mice (KAP metastases)): 26.10% and 18.70% and 20.10% and 20.40% | CD8+ T cells, % of living cells (immune cells; tumor mice (KAP metastases)): 9.80% and 8.43% and 8.87% and 8.45% | Dendritic cells, % of living cells (immune cells; tumor mice (KAP metastases)): 3.14% and 2.58% and 3.53% and 2.01% | Granulocytes, % of living cells (immune cells; tumor mice (KAP metastases)): 3.71% and 4.06% and 4.14% and 4.54% | Monocytes, % of living cells (immune cells; tumor mice (KAP metastases)): 3.31% and 3.61% and 4.85% and 6.16% | NK cells, % of living cells (immune cells; tumor mice (KAP metastases)): 3.40% and 4.06% and 3.95% and 4.77% | T cells, % of living cells (immune cells; tumor mice (KAP metastases)): 38.40% and 29.30% and 31.40% and 31.30%

Reference: PMC11864979, “First-in-class ultralong-target-residence-time p38α inhibitors as a mitosis-targeted therapy for colorectal cancer” (Nature Cancer, 2025)
